Experimental data published in ChEMBL document CHEMBL4819103, “Discovery of selective fragment-sized immunoproteasome inhibitors” (Eur J Med Chem, 2021).
One block for each molecule: values may come before it. Calls of active or inactive are those of the source. No cut-off for these calls is given here.

Experiments:
[1] = Glutathione reactivity of compound at pH 8 measured by HPLC-MS assay; type: physicochemical
[2] = biological target: T1, Proteasome Macropain subunit MB1 (Homo sapiens) (UniProt P28074); experiment: Inhibition of beta 5 chymotrypsin-like activity (unknown origin) at 100 uM using Suc-LLVY-AMC as substrate for 90 mins by fluorescence based assay; design: scale not given: the % may be the effect or the level left
T1 sequence (whole entry): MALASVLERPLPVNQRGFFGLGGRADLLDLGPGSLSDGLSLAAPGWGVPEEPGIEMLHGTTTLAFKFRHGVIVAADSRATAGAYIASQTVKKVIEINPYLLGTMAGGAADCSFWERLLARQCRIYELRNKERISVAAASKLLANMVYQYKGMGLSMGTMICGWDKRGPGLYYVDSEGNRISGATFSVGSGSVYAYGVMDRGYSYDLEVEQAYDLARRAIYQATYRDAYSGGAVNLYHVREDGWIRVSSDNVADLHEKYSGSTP

[3] = Glutathione reactivity of compound at pH 9 measured by HPLC-MS assay; type: physicochemical
[4] = Glutathione reactivity of compound at pH 7.5 measured by HPLC-MS assay; type: physicochemical
[5] = Thiol reactivity of the compound assessed as TNB2-depletion at 200 uM measured upto 24 hrs by TNB2-depletion assay; type: physicochemical
[6] = biological target: T2, Proteasome subunit beta type-8 (Homo sapiens) (UniProt P28062); experiment: Inhibition of human chymotrypsin-like beta 5i subunit of iCP assessed as residual activity using suc-LLVY-AMC as flurogenic substrate at 150 uM for 90 mins by fluorescence-based assay
T2 sequence (whole entry): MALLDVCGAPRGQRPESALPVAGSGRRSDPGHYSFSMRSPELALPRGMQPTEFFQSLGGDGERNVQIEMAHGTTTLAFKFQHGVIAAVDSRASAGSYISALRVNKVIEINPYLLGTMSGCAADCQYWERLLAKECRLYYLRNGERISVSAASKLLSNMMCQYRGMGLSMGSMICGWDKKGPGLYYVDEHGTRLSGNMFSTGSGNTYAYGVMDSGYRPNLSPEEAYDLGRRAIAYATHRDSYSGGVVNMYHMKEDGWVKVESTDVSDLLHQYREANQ

[7] = Glutathione reactivity of compound at pH 8.5 measured by HPLC-MS assay; type: physicochemical
[8] = Solubility of the compound in DMSO; type: physicochemical
Homo sapiens [9] = organism: Homo sapiens; experiment: Selectivity ratio of IC50 for human beta2i subunit of iCP Pto IC50 for human chymotrypsin-like beta 5i subunit of iCP
Homo sapiens [10] = organism: Homo sapiens; experiment: Selectivity ratio of IC50 for human beta2 subunit of cCP Pto IC50 for human chymotrypsin-like beta 5i subunit of iCP
Homo sapiens [11] = organism: Homo sapiens; experiment: Selectivity ratio of IC50 for human beta1i subunit of iCP Pto IC50 for human chymotrypsin-like beta 5i subunit of iCP
[12] = biological target: T3, Proteasome subunit beta type-8 (Homo sapiens, UniProt P28062); experiment: Inhibition of human chymotrypsin-like beta 5i subunit of iCP using suc-LLVY-AMC as flurogenic substrate for 90 mins by fluorescence-based assay
T3 sequence (P28062 whole entry): T2 sequence (whole entry)

[13] = biological target: T4, Proteasome Macropain subunit MB1 (Homo sapiens, UniProt P28074); experiment: Inhibition of beta 5 chymotrypsin-like activity (unknown origin) using Suc-LLVY-AMC as substrate for 90 mins by fluorescence based assay
T4 sequence (P28074 whole entry): T1 sequence (whole entry)

[14] = biological target: T2, Proteasome subunit beta type-8 (Homo sapiens); experiment: Inhibition of human chymotrypsin-like beta 5i subunit of iCP assessed as residual activity using suc-LLVY-AMC as flurogenic substrate at 100 uM for 90 mins by fluorescence-based assay
[15] = Solubility of the compound in buffer; type: physicochemical
[16] = biological target: T2, Proteasome subunit beta type-8 (Homo sapiens); experiment: Inhibition of human chymotrypsin-like beta 5i subunit of iCP assessed as cysteine-48 labelling by Ellman's method

SMILES: O=S(=O)(F)c1nc2ccccc2s1
Ratio IC50 (Homo sapiens [9]): 7
Ratio IC50 (Homo sapiens [10]): 7
Ratio IC50 (Homo sapiens [11]): 7
IC50 [12]: 11 µM
IC50 [13]: 81 µM

SMILES: N#Cc1nc2ccc(Cl)cc2o1
IC50 [12]: 9.1 µM
IC50 [13]: 45 µM
inhibition [16]: Active

SMILES: Cc1ccc2nc(S)sc2c1
Activity [14]: 55%
solubility [15]: Insoluble

More lines, now with the values ahead:

Drug metabolism [1]: Metabolite_Notdetected
Activity [2]: 100%
Drug metabolism [3]: Metabolite_Notdetected
Drug metabolism [4]: Metabolite_Notdetected
Drug metabolism [5]: Metabolite_Notdetected
Activity [6]: 80%
Drug metabolism [7]: Metabolite_Notdetected
SMILES: Cn1c(S)nc2cc(Cl)ccc21

solubility [8]: Insoluble
SMILES: Sc1nc2ccc(Cl)cc2s1

solubility [8]: Insoluble
SMILES: O=C(CCc1cccnc1)Nc1cccc2[nH]c(=S)oc12

Activity [14]: 39%
solubility [15]: Insoluble
SMILES: Cn1c(=S)[nH]c2ccc(NC(=O)c3ccccc3)cc21
